“And” between values parts separate entries of the source, which are not always exact repeats. Equal entries are not always repeated.
Biological target: T1, dopamine transporter (Homo sapiens, UniProt Q01959)
T1 construct: dynamic SPECT in Parkinson's subjects and similarly aged healthy control subjects; from tissue; host or cells: striatum (caudate and putamen) of living subjects, imaged in vivo
Assay: 123I Altropane dynamic SPECT imaging of striatal dopamine transporter in Parkinson's disease and healthy control subjects
Format: in vivo
Conditions: for Mean % test/retest difference: 15 PD subjects; for Total striatal binding ratio, Ratio (3-6): individual PD scans (paired test/retest), mean of scans 3-6, about 30 min from about 15 min post injection; for Peak Striatal:Occipital Ratio (peak SBR): single scan with highest uptake, 8 mCi i.v.
Excerpt: The following example summarizes single photon emission computed tomographic (SPECT) image acquisition, analysis methods and results for Parkinson's disease research participants and healthy controls participating in an ^123I Altropane SPECT imaging study. The experiment is an open label study evaluating time-activity curves and striatal dopamine transporter occupancy over the first hour post injection of ^123I Altropane using temporally well-resolved dynamic SPECT in Parkinson's subjects and similarly aged healthy control subjects. In addition, for the PD subjects, a second injection and scan is performed on each subject on a separate test days to evaluate the test/retest reproducibility data for both visual and quantitative analyses.
Fifteen idiopathic Parkinson's disease subjects are recruited through local advertising and word-of-mouth for enrollment in the study. Imaging is performed at Molecular NeuroImaging, LLC in New Haven, Conn., USA. ^123I Altropane is studied under the auspices of a physician-sponsored IND # 76,024, Dr. J. Seibyl physician sponsor using test article provided by MDS Nordion, Inc (Vancouver, BC, Canada). All subjects are provided informed consent prior to any study procedures. All fifteen subjects completed two separate injection and SPECT scan sessions with approximately 296 mBq (8 mCi) of ^123I Altropane. Subjects undergo motor ratings using the Unified Parkinson's Disease Rating Scale (UPDRS) following overnight period without anti-Parkinson medication administered by a movement disorder specialist. No PD subjects are terminated prior to achieving the study endpoint.
Twelve healthy control subjects are recruited for participation in a single scan session with ^123I Altropane using the identical SPECT image acquisition protocol as the PD subjects. Healthy subjects are evaluated by a movement disorder specialist to confirm the absence of neurologic illness.
SPECT scans are acquired for 60 minutes following the intravenous injection with 296 mBq (8.0 mCi) of ^123I Altropane. A series of dynamic SPECT scans are obtained as five scans at 6 minutes per acquisition followed by three scans at 10 minutes per acquisition. The subject remain in the camera for the duration of the acquisition. Each SPECT study is acquired on a Philips PRISM 3000XP triple-headed SPECT camera (Cleveland, Ohio, USA) fitted with fan-beam collimators. Each head rotates 360 degrees, sampling every 3 degrees for a total of 120 raw projection images per head. Projection data were collected in a 128×128 matrix within a symmetric energy window centered at 159 kEv (+/−10%).
Data are re-constructed using filtered back projection and a simple ramp filter followed by a post hoc (3-D) standardized low pass filter. Attenuation correction was performed applying a Chang 0 correction and a mu of 0.11 cm^−1 using a standard or custom automated software package. Regions of interest (ROIs) are placed in the 3-head data with individual ROI sampling of the left and right caudate and putamen and an occipital background region. The ROIs were then applied to all images in the injection session (total of 24=8 time points×3 head conditions (1, 1&2, 1&2&3). To check for head movement within each scan session, five external skin fiducial markers containing 1 μCi of ^123I were place along the canthomeatal line (2 right side, 3 left side) prior to each SPECT scan. Total counts within the ROI, total volume, and count density (counts/voxel) were extracted from each scan and logged in a data spreadsheet for determination of striatal uptake ratios (SBR) defined as the density of counts (counts per voxel per minute) in the striatal region divided by the density of counts in the occipital background region. The mean striatal SBR scores were calculated as the mean of the left and right caudate and putamen SBR scores. Since sampling in striatal subregions used the identical size ROI, there was equal contribution from left and right caudate and putamen to the mean SBR. […]

T1 sequence (Q01959 whole entry): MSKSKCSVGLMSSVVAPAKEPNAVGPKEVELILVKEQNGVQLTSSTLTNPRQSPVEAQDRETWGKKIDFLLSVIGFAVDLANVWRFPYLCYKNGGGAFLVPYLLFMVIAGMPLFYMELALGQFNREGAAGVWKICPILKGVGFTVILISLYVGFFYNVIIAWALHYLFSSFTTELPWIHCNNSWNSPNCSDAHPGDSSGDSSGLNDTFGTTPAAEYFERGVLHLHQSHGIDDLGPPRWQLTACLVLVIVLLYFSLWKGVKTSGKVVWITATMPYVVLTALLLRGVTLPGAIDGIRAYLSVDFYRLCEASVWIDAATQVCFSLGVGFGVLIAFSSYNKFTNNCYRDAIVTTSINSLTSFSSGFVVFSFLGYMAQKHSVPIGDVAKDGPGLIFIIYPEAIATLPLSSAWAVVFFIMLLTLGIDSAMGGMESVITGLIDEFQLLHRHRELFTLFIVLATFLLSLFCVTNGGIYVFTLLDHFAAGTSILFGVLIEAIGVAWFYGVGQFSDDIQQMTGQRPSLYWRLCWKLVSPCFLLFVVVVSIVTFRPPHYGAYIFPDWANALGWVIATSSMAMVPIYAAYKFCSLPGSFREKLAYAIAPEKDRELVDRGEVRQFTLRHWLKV

With `COC(=O)C1C(c2ccc(F)cc2)CC2CCC1N2C/C=C/I` (stereo not drawn) [123I Altropane, 2β-carbomethoxy-3β-(4′-flurophenyl)-N-(3-iodo-E-allyl) nortropane] the “Mean % test/retest difference” value (1 head) was 4.94%, the “Mean % test/retest difference” value (2 heads) was 5.11% and the “Mean % test/retest difference” value (3 heads) was 5.14%. For the same compound, the “time post injection of relative stability of binding ratios” value (a PD and a control subject, FIG. 3) was “about 15 minutes”, the “time post injection by which washout rates from striatum and occipital background are similar (stable striatal binding ratio)” value (all subjects) was 20 to 30 min and the “time of peak striatal count densities post-injection” value (controls and PD subjects, bolus injection) was 10 min. The “Total striatal binding ratio, Ratio (3-6)” value (shortened to “Total striatal binding ratio”) (1 head) was 1.29 (4×) and 1.23 and 1.30 (2×) and 1.26 (3×) and 1.25 (3×) and 1.22 (2×) and 1.37 (2×) and 1.40 and 1.48 and 1.20 (2×) and 1.16 and 1.32 and 1.35 and 1.21 (2×) and 1.12 and 1.28 and 1.17 and 1.24, the “Total striatal binding ratio” value (2 heads) was 1.29 and 1.27 (3×) and 1.35 and 1.37 and 1.31 and 1.32 (4×) and 1.30 and 1.36 and 1.43 and 1.47 and 1.60 and 1.25 and 1.21 and 1.19 and 1.38 (2×) and 1.40 and 1.24 (2×) and 1.12 and 1.26 and 1.33 (2×) and 1.20 and 1.45 and the “Total striatal binding ratio” value (3 heads) was 1.32 and 1.30 (2×) and 1.39 and 1.41 and 1.33 and 1.36 (2×) and 1.35 (2×) and 1.38 and 1.45 and 1.56 and 1.70 and 1.37 (2×) and 1.28 and 1.23 and 1.20 and 1.42 (2×) and 1.44 and 1.26 and 1.15 and 1.29 and 1.31 and 1.22 and 1.50 and 1.40 and 1.27. For the same compound, the “Peak Striatal:Occipital Ratio (peak SBR)” value (individual PD subjects, 1 head reconstruction) was 1.29 (2×) and 1.24 (2×) and 1.22 and 1.35 and 1.41 (2×) and 1.52 and 1.43 and 1.26 (2×) and 1.32 and 1.33 (2×), the “Peak Striatal:Occipital Ratio (peak SBR)” value (individual PD subjects, 2 head reconstruction) was 1.28 (2×) and 1.27 (2×) and 1.25 and 1.41 and 1.46 and 1.66 and 1.53 and 1.26 and 1.36 and 1.32 and 1.43 and 1.37 and 1.39 and the “Peak Striatal:Occipital Ratio (peak SBR)” value (individual PD subjects, 3 head reconstruction) was 1.30 (2×) and 1.25 and 1.44 (2×) and 1.74 and 1.60 and 1.33 and 1.34 and 1.45 (2×) and 1.35 and 1.39 and 1.28 and 1.43. The “Peak Striatal:Occipital Ratio (peak SBR)” value (individual healthy controls, 1 head reconstruction) was 1.49 and 1.57 and 1.79 and 1.47 and 1.56 and 1.63 and 1.64 and 1.86 and 1.52 and 1.50 and 1.66 and 1.51, the “Peak Striatal:Occipital Ratio (peak SBR)” value (individual healthy controls, 2 head reconstruction) was 1.66 and 1.67 and 1.95 and 1.62 and 1.68 and 1.79 and 1.77 and 2.10 and 1.59 and 1.55 and 1.84 and 1.61 and the “Peak Striatal:Occipital Ratio (peak SBR)” value (individual healthy controls, 3 head reconstruction) was 1.81 (2×) and 1.79 and 2.06 and 1.69 and 1.90 and 1.93 and 2.30 and 1.71 and 1.68 and 1.86 and 1.77. For the same compound, the “mean SBR (peak Striatal:Occipital Ratio)” value (mean of 12 healthy controls, 1 head) was 1.60, the “mean SBR (peak Striatal:Occipital Ratio)” value (mean of 12 healthy controls, 2 head) was 1.74 and the “mean SBR (peak Striatal:Occipital Ratio)” value (mean of 12 healthy controls, 3 head) was 1.86. The “mean SBR (peak Striatal:Occipital Ratio)” value (mean of 15 PD subjects, 1 head) was 1.33, the “mean SBR (peak Striatal:Occipital Ratio)” value (mean of 15 PD subjects, 2 head) was 1.37 and the “mean SBR (peak Striatal:Occipital Ratio)” value (mean of 15 PD subjects, 3 head) was 1.41. For the same compound, the elimination from brain (most subjects, striatal and occipital regions) was “rapid elimination” and the “time of peak SBR post injection” value (one and two head scenarios) was no less than 15 min.
